Results on six compounds are retold here after patent publication US20180280397A1, “RATIONAL COMBINATION THERAPY FOR THE TREATMENT OF CANCER” (Memorial Sloan Kettering Cancer Center, priority 2015, published 2018).

Structures are written as SMILES. “Also recorded” adds a separate entry of the source.

One series has as its system cancer cell lines. The experiment in a line: Cell viability by Annexin V staining in type 1 and type 2 cancer cells. It is filed as cell-based. Conditions: for apoptotic sensitivity, type 1 tumors / apoptotic sensitivity, type 2 tumors: Annexin V staining. As to the method: (FIG. 3c). Cells were treated with 1 μM PU-H71-FITC. At 4 h post treatment, cells were washed twice with FACS buffer. To measure PU-H71-FITC binding in live cells, cells were stained with 7-AAD in FACS buffer at room temperature for 10 min, and analyzed by flow cytometry (BD Biosciences). Cell viability was determined using Annexin v staining. […]

The test system of the next series is HER2+ tumors. The conditions noted are these: patients with progressive disease after trastuzumab therapy; cited from earlier work.
Series [1] relates to BT20 triple negative breast cancer cells. In words: Incucyte kinetic growth assay. The series is classed as cell-based. Conditions: for effect on cell confluency, agent alone: 2 μM paclitaxel or 5 μM PU-H71; for remaining live cells and regrowth after removal of agents: between 130 h and approximately 230 h. The procedure: MDA-MD-231 and BT20 triple negative breast cancer cells were seeded in tissue culture treated dishes. Once confluent to approximately 50% of the vessel surface area, the cells were treated with medium containing 2 μM paclitaxel, 5 μM PU-H71, vehicle (DMSO), or a combination of 2 μM paclitaxel and 5 μM PU-H71 (together or sequential). Cells were grown in these conditions in an Essen IncuCyte housed in a standard cell culture incubator. Nine images per condition were collected every 2 hours for a total of 316 hours. After 24 hours under the aforementioned treatment conditions, paclitaxel treated cells were treated with medium containing 5 μM PU-H71 or the control vehicle, PU-H71 treated cells were treated with medium containing 2 μM paclitaxel or control vehicle, and the cells treated with vehicle and the combination of PU-H71 with paclitaxel were treated with medium containing control vehicle. All secondary drug additions were added to existing medium containing the original treatment. The existing medium was additionally diluted twice more with medium containing the control vehicle; each dilution occurring 24 hours after the previous. After 96 hours in culture, the medium was aspirated from each well and replaced with cell-appropriate medium with no pharmacological agents. As stated above, cells were monitored for a total of 316 hours (i.e., […] after complete removal of pharmacological agents).

For another series, the system named is epichaperome. In words: Induction of epichaperome, native gel of HSP90 complexes in treated cancer cells. The series is classed as cell-based. The conditions noted are these: cells pretreated with paclitaxel for 1 h then drug washed off. The procedure:
Cells were cultured using the procedure described in Example 1. The proteotoxic stressor (e.g., paclitaxel or bortezomib) was added for 6 hours and then the cells were lysed. The homogenate was applied for separation on a gel under native conditions.
For the wash off studies (FIG. 8d), cells were cultured and then treated with paclitaxel (referred to as PAC in figure) for 1-2 hours to mimic in vivo conditions. The paclitaxel was then washed off to determine how long the epichaperome is maintained in vitro.

Series [2] relates to BJAB Burkitt lymphoma cells. In words: MTS viability assay, DOX followed by PU-H71. The series is classed as cell-based. Conditions: Homo sapiens, 24 h. The procedure: BJAB Burkitt lymphoma cells were exposed to serial dilutions of DOX for 24 h prior to addition of 500 nM PU-H71. Viability was measured 24 h later using standard MTS assay. Sextuplicate data points were averaged and normalized against untreated (DOX alone) or PU-H71-treated (DOX followed by PU-H71) controls. Data is presented as mean±SD.

A further series has as its system SUDHL4 DLBCL cells. In words: Cell cycle analysis and caspase-3 activation by flow cytometry. The series is classed as cell-based. The procedure: To further establish the potency of a combination of a proteotoxic agent and an Hsp90 inhibitor, in vitro assays were performed on lymphoma cells treated with Doxorubicin (DOX). DOX is a topoisomerase inhibitor that intercalates into DNA to induce DNA damage and oxidative stress. The interaction of DOX and PU-H71 was evaluated using standard criteria for synergy, the median effect/Combination Index (CI) method. A dose-response matrix was used as a means to systematically test multiple ratios of DOX:PU-H71 for interaction in sequential or simultaneous schedules of exposure. […] The effect of each drug and their combination on cell cycle and apoptosis in lymphoma cells with low to medium epichaperome levels, such as the SUDHL4 DLBCL cells was evaluated (FIG. 18c).
SUDHL4 DLBCL cells were exposed to PU-H71 and DOX or combinations in different schedules as indicated. Caspase-3 activation was measured by flow cytometry using PE-conjugated anti-active Caspase-3 antibody (FIG. 18C). Cell cycle analysis was performed in parallel and is shown in the inset at top left of each scatterplot. Frequency of hypodiploid population is indicated.
(A flow cytometer gives signals particle by particle.)

The subject of series [3] is primary acute myeloid leukemias. The experiment in a line: Ex vivo treatment of primary acute myeloid leukemia samples. The series is classed as cell-based. As to the method: Primary acute myeloid leukemia. Cryopreserved primary AML samples were obtained with informed consent and Weill Cornell Medical College institutional review board approval, and from the University of Pennsylvania Stem Cell & Xenograft Core Facility.
Epichaperome abundance determined by the PU-FITC flow cytometry assay. Cells were treated with 1 μM PU-H71-FITC. At 4 h post treatment, cells were washed twice with FACS buffer (PBS-0.5% FBS). To measure PU-H71-FITC binding in live cells, cells were stained with 7-AAD in FACS buffer at room temperature for 10 min, and analyzed by using an BD-LSR-II or BD-Canto cytometry (BD Biosciences). Cell viability was determined using Annexin-V staining. At 48 h post 1 μM PUH71 treatment, cells were stained with Annexin-V BD Horizon-V450 (BD Biosciences) and 7-AAD in Annexin-V buffer, and subjected to flow cytometry to measure viability determined by AnnexinV/7AAD double negative gates.

Series [4] deals with HSP90 in the epichaperome complex. The experiment in a line: PU-H71-beads depletion of HSP90 species from cell lysates, isoelectric focusing. The series is classed as binding. The source says:
The supernatant was applied to native gel separation followed by immunoblotting with HSP90 and other epichaperome complex components (left, example for MDAMB468) or nanopro isoelectric focusing and immunoblotting ([…], shown for all 3 cells). Duplicates of each experimental condition are presented. Data were graphed to indicate the relative binding affinity of PU-H71 to the HSP90 species as expressed in the 3 cell types.

A short description of series [5]: Safety and body weight monitoring in tumor-bearing mice. The series is classed as in vivo. As to the method:
Pre-formulated Abraxane® (5 mg/ml) was used.
Five mice were administered the vehicle control.

The subject of a further series is primary breast tumors. In words: Ex vivo treatment of primary breast cancer specimens. The series is classed as cell-based. The conditions noted are these: 24 h. As to the method:
Primary breast cancer specimens. Patient tissue procurement was authorized through institutionally review board-approved bio-specimen protocol#09-121 at Memorial Sloan Kettering Cancer Centre (New York, N.Y.). Specimens were treated for 24 h with the indicated concentrations of PU-H71. Following treatment, slices were fixed in 4% formalin solution for 1 h then stored in 70% ethanol. For tissue analysis, slices were embedded in paraffin, sectioned, slide-mounted, and stained with haematoxylin and eosin. Tissue slides were assessed blindly by a breast cancer pathologist who gauged the apoptosis present in the tumor as well as any effect to normal tissue.
Primary breast tumor protocol. The ex vivo protocol employed on this study is depicted schematically in FIG. 4. Sample preparation and treatment are detailed in Ex vivo treatment response of primary tumors and/or associated metastases for preclinical and clinical development of therapeutics. Corben A D, Uddin M M, Crawford B, Farooq M, Modi S, Gerecitano J, Chiosis G, Alpaugh M L. J Vis Exp. 2014 Oct 2; (92):e52157.

The test system of series [6] is triple-negative breast cancer mouse models. The conditions noted are these: pre-clinical; cited from earlier work.

As to `CC1(C)CC(=O)c2c(C(F)(F)F)nn(-c3ccc(C(N)=O)c(N[C@H]4CC[C@H](O)CC4)c3)c2C1` [SNX2112], in the series on cancer cell lines (48 h), the “apoptotic sensitivity, type 1 tumors” value was “effectively killed” and the “apoptotic sensitivity, type 2 tumors” value is “refractory”.
`CO[C@H]1/C=C\C=C(/C)C(=O)NC2=CC(=O)C(NCCN(C)C)=C(C[C@@H](C)C[C@H](OC)[C@H](O)[C@@H](C)/C=C(\C)[C@@H]1OC(N)=O)C2=O` [17-DMAG]: in the series on HER2+ tumors, the clinical response result was “elicited responses”.
Turning to `CC(=O)O[C@H]1C(=O)[C@@]2(C)[C@H]([C@H](OC(=O)c3ccccc3)[C@]3(O)C[C@H](OC(=O)[C@H](O)[C@@H](NC(=O)c4ccccc4)c4ccccc4)C(C)=C1C3(C)C)[C@]1(OC(C)=O)CO[C@@H]1C[C@@H]2O` [paclitaxel, reference compound], in [1], the “effect on cell confluency, agent alone” value was “cytotoxic effect”; the “remaining live cells and regrowth after removal of agents” value was “a few live cells and these cells start to regrow”. Further, in the series with epichaperome, the “time of decrease of epichaperome to endogenous levels” value is listed as not above 24 h and the “time of peak epichaperome levels” value fell in the range of 5 to 7 h.
For the compound `COc1cccc2c1C(=O)c1c(O)c3c(c(O)c1C2=O)C[C@@](O)(C(=O)CO)C[C@@H]3O[C@H]1C[C@H](N)[C@H](O)[C@H](C)O1` [DOX, Doxorubicin], the IC50 is 75 nM in series [2] (500 nM PU-H71 added sequentially 24 h after DOX, viability 24 h later) and 400 nM in series [2] (DOX alone, DOX 24 h, viability measured 24 h later). Further, the “effect on cell cycle” value in the series with SUDHL4 DLBCL cells (24 h exposure to doses of DOX below the IC50) was “loss of S-phase fraction and accumulation in G2/M”.
`CC(C)NCCCn1c(Sc2cc3c(cc2I)OCO3)nc2c(N)ncnc21` [PU-H71, 8-(6-Iodo-benzo[1,3]dioxol-5-ylsulfanyl)-9-(3-isopropylamino-propyl)-9H-purin-6-ylamine]: in series [3], the “sensitivity of non-malignant lymphocytes in the AML samples” value is reported as “insensitive” and the “sensitivity of type 2 tumors” value is recorded as “mostly unaffected”. The “killing of leukemias expressing stable multimeric epichaperome forms” value in [3] (n=40) is given as “most effectively killed”. Further, in series [1], the “effect on cell confluency, agent alone” value is on record as “cytotoxic effect”; the “remaining live cells and regrowth after removal of agents” value is “a few live cells and these cells start to regrow”. Besides, the “relative binding affinity for HSP90 species” value in series [4] (epichaperome / stress HSP90 vs housekeeping, normal cell HSP90) was “higher affinity for the stress HSP90 species; also recorded: higher affinity and selectivity”. In addition, in [4] (increasing amounts of PU-H71 attached to a solid support), the “amount of epichaperome in the lysates” value was “dose-dependent reduction”. For the same compound, the adverse effects result in series [5] (Example 13: NCI-H1975, HCC1806 or MDA-MB-231 bearing mice, ip once a week, PU-H71 75 mg/kg, Abraxane 30 mg/kg) was “No adverse effects were observed”. Moreover, the adverse effects entry in series [5] (Example 14: MiaPaca2 bearing mice, Abraxane 30 mpk iv or ip 1x wk, PU-H71 75 mpk ip 1x or 2x wk, 40-day treatment) is given as “No adverse effects were observed”. In addition, the adverse effects result in series [5] (Example 15: HCC1806 bearing mice, Abraxane 30 mpk iv 1x wk, PU-H71 75 mpk ip 1x or 2x wk, 40-day treatment) is “No adverse effects were observed”. Also, in the series with primary breast tumors, the “apoptosis / killing of tumors expressing stable multimeric epichaperome forms” value is listed as “most effectively killed; also recorded: readily underwent apoptosis”, the “sensitivity of adjacent benign tissue” value is given as “insensitive” and the “sensitivity of tumors not enriched in the epichaperome (type 2)” value is recorded as “mostly unaffected; also recorded: far less sensitive”. For the same compound, the single-agent anti-tumor effect entry in series [6] was “most potent targeted single-agent anti-tumor effect yet reported”. Further, in the series with SUDHL4 DLBCL cells (24 h exposure to 1 μM PU-H71), the “effect on cell cycle” value is given as “G1/S arrest”. The cell death entry in the series with cancer cell lines (cells enriched in the epichaperome vs cells with lower levels, 1 μM, 48 h) is “more likely to die”. Further, the sensitivity to killing result in the series with cancer cell lines (cells with AHA-1 levels reduced by siRNA, 24 h) was “less amenable to killing”.
Take `CCNC(=O)c1noc(-c2cc(C(C)C)c(O)cc2O)c1-c1ccc(CN2CCOCC2)cc1` [NVP-AUY-922]: in the series with cancer cell lines (48 h), the “apoptotic sensitivity, type 1 tumors” value was “effectively killed” and the “apoptotic sensitivity, type 2 tumors” value was “refractory”.

Broadly, the IC50 is the point on the concentration scale where inhibition reaches its midpoint. Higher therefore signals weaker potency in that assay.
